Assay type in all cases: cell-based
Test [1] concerns TMPRSS2. As to the kind of experiment: TMPRSS2 mRNA expression in A549 cells (qPCR). For orientation: In qPCR the cycle at which signal appears reflects the starting amount.
The subject of test [2] is 22RV1 prostate cancer cells. The test can be described thus: Anti-proliferative activity against resistant 22RV1 cells expressing AR-V7. The note with it: Homo sapiens; 22RV1 cells expressing AR-V7 splice variant; read-out: Antiproliferative activity IC50. As for the experimental part:
The cells were then digested with trypsin and counted using an automated cell counter to determine cell density. The cell suspension was diluted to the desired density in growth medium. Subsequently, 100 μL of the cell suspension was seeded into 96-well plates and incubated at 37° C. with 5% CO2 for 24 hours. 10 μL of drug solution (including 3-fold serial dilutions of compounds or DMSO) was added to each well, and the plates were incubated at 37° C. with 5% CO2 for 6 days. Prior to measurement, the assay plates were equilibrated to room temperature. 40 μL of CellTiter-Glo® reagent was added to each well. The plates were mixed on an orbital shaker for 2 minutes to induce cell lysis. After incubation at room temperature for 60 minutes to stabilize the luminescence signal, the plates were read on an Envision plate reader.
The experimental procedure was essentially the same as that for LNCaP cells.

Test [3] concerns ACE2. The test can be described thus: ACE2 mRNA expression in A549 cells (qPCR).
The mark [4] stands for this setting: 10 μM, 1 nM DHT, 48 h, Blank = 1.

As a reminder, the IC50 is the midpoint of a concentration-inhibition curve. Regarding `Cc1cn(C2=CCC3C4CC=C5C[C@@H](NC(=O)c6ccc(S(C)(=O)=O)cc6)CC[C@]5(C)C4CC[C@]23C)cn1` (stereo partly drawn) [Compound 35, N-((3S,10R,13S)-17-(4-methyl-1H-imidazol-1-yl)-10,13-dimethyl-2,3,4,7,8,9,10,11,12,13,14,15-dodecahydro-1H-cyclopenta[a]phenanthren-3-yl)-4-(methylsulfonyl)benzamide], the “Expression of TMPRSS2 protein, in words” value in test [1] is “significantly downregulate”. The “TMPRSS2 mRNA level” value in test [1] (setting [4]) is given as 0.394. For the same compound, the IC50 in test [2] came to 651 nM. Besides, the “Expression of ACE2 protein, in words” value in test [3] was “significantly downregulate”. For the same compound, the “ACE2 mRNA level” value in test [3] (setting [4]) was found to be 0.102.

For the compound `Cc1cn(C2=CCC3C4CC=C5C[C@@H](NC(=O)c6ccc(F)cc6F)CC[C@]5(C)C4CC[C@]23C)cn1` (stereo partly drawn) [Compound 37, N-((3S,10R,13S)-17-(4-methyl-1H-imidazol-1-yl)-10,13-dimethyl-2,3,4,7,8,9,10,11,12,13,14,15-dodecahydro-1H-cyclopenta[a]phenanthren-3-yl)-2,4-difluorobenzamide], the IC50 in test [2] turned out to be 452 nM.

Consider `Cc1cn(C2=CCC3C4CC=C5C[C@@H](NC(=O)c6ccc(F)cc6)CC[C@]5(C)C4CC[C@]23C)cn1` (stereo partly drawn) [Compound 33, N-((3S,10R,13S)-17-(4-methyl-1H-imidazol-1-yl)-10,13-dimethyl-2,3,4,7,8,9,10,11,12,13,14,15-dodecahydro-1H-cyclopenta[a]phenanthren-3-yl)-4-fluorobenzamide], for which the IC50 in test [2] was found to be 624 nM.

For `Cc1cn(C2=CCC3C4CC=C5C[C@@H](NC(=O)c6ccncc6)CC[C@]5(C)C4CC[C@]23C)cn1` (stereo partly drawn) [Compound 14, N-((3S,10R,13S)-10,13-dimethyl-17-(4-methyl-1H-imidazol-1-yl)-2,3,4,7,8,9,10,11,12,13,14,15-dodecahydro-1H-cyclopenta[a]phenanthren-3-yl)isonicotinamide], in test [2], the IC50 was 591 nM.

These data come from patent US20250073249A1, “STEROID COMPOUND, AND PREPARATION METHOD THEREFOR AND USE THEREOF” (SHANGHAI INSTITUTE OF MATERIA MEDICA, CHINESE ACADEMY OF …, priority 2022, published 2025).
